The target of assay [1] is T1, Aβ1–42 peptide aggregation (Homo sapiens, UniProt P05067).
T1 construct: Recombinant human HFIP-pretreated Aβ1–42 peptide; purchased Merck Millipore, Darmstadt, Germany
Put plainly: Thioflavin T-based fluorometric assay of Aβ aggregation. Format: biochemical. The settings on record: read-out: Aβ-Aggr. % Inh.

The target in assay [2] is eqBuChE (BuChE from equine serum) (Equus caballus, UniProt P81908). Put plainly: biochemical. The note with it: for inhibition at 10 µM: at 10 μM inhibitor concentration, mean ± SD, read-out: eqBuChE % Inh.
Chain of eqBuChE (BuChE from equine serum) (P81908 whole entry): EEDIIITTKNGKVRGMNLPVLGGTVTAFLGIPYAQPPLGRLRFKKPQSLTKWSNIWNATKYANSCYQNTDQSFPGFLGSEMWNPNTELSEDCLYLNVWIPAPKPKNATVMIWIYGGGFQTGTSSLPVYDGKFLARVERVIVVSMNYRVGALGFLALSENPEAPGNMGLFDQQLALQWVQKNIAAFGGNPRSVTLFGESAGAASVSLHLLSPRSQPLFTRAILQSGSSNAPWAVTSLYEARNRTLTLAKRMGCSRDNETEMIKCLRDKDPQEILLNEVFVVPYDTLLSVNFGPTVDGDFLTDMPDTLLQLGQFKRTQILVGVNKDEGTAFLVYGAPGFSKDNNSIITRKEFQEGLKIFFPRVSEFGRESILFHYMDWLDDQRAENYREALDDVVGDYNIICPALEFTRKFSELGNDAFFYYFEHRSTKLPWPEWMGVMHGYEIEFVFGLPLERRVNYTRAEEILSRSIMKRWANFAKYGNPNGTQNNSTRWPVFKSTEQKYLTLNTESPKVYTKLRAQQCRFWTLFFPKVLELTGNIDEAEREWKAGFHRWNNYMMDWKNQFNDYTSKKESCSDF
Assay [3] concerns the target T2, eeAChE (AChE from Electrophorus electricus) (Electrophorus electricus, UniProt O42275).
T2 construct: purchased Sigma-Aldrich
Put plainly: biochemical. The note with it: for inhibition at 10 µM: at 10 μM inhibitor concentration, mean ± SD, read-out: eeAChE % Inh.; for IC50: AChE from electric eel, mean ± SEM, at least three experiments.

The target of assay [4] is T3, human recombinant BACE-1 (hBACE-1) (Homo sapiens, UniProt P56817).
T3 construct: purchased PanVera BACE-1 FRET Assay Kit, bought from Life Technologies Polska Sp. z o.o; host or cells: baculovirus expression
T3 sequence (P56817 46-501): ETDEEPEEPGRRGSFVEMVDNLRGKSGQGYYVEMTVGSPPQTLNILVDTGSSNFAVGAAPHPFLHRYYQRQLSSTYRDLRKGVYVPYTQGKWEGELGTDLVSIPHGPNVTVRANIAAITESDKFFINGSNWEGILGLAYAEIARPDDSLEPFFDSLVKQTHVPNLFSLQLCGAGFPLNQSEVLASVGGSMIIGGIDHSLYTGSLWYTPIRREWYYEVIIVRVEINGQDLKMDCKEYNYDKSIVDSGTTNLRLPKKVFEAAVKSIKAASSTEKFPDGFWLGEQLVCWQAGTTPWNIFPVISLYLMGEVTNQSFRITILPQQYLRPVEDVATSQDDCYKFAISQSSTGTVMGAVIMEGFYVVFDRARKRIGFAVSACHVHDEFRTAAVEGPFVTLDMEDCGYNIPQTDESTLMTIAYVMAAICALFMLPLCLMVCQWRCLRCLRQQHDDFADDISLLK
Put plainly: BACE-1 FRET assay (PanVera kit). Format: biochemical. The note with it: at 50 μM inhibitor concentration; mean ± SD; read-out: hBACE-1 % Inh.

Assay [5] concerns Aβ toxicity. On the set-up: method as in PMID 25621991. The settings on record: at 1 μM and 3 μM; cited from earlier work.
In assay [6] the test system is Aβ aggregation. Set-up: method as in PMID 25621991. The note with it: at 10 μM; cited from earlier work.
In assay [7] the test system is human AChE. Set-up: method as in PMID 25621991. The settings on record: cited from earlier work.
Setting [8] is: at 10 μM inhibitor concentration, 1.5 μM Aβ1–42, mean ± SD.

In general, IC50 refers to the midpoint of a concentration-inhibition curve.

Like-named read-outs stand apart in the source and are kept apart here.

T1 sequence (P05067 672-713 limits assumed): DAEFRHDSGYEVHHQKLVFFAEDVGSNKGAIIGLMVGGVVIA
T2 sequence (O42275 24-633): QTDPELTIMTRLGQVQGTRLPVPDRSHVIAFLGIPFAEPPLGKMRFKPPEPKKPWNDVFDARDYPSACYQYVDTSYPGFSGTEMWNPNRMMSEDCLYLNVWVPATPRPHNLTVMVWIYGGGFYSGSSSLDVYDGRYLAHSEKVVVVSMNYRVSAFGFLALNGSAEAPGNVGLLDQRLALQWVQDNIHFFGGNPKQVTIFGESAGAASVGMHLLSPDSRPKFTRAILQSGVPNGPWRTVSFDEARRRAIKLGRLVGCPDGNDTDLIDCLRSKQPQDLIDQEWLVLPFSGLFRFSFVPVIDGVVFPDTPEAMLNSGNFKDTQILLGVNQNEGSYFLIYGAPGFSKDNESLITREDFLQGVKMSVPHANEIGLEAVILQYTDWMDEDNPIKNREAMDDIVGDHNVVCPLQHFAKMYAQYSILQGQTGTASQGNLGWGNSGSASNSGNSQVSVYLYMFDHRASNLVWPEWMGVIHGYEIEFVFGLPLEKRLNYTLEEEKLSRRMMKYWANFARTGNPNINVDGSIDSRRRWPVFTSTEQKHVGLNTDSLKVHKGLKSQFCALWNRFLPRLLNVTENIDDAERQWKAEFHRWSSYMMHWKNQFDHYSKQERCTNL

Regarding `O=C1c2ccccc2C(=O)N1CC(O)CNCc1ccccc1` (centres unmarked) [Compound 1, 2-(3-(Benzylamino)-2-hydroxypropyl)isoindoline-1,3-dione], the inhibition at 10 µM in assay [1] (setting [8]) is under 10%; in assay [2], 14.1%; in assay [3] it was 11.5%. For the same molecule, the inhibition at 50 µM in assay [4] came to 37.3%.
Turning to `O=C1c2ccccc2C(=O)N1CC(O)CNCc1ccccc1F` (centres unmarked) [Compound 2, 2-(3-((2-Fluorobenzyl)amino)-2-hydroxypropyl)isoindoline-1,3-dione], the inhibition at 10 µM amounted to 21.1% in assay [1] (setting [8]), 19.5% in assay [2] and 28.1% in assay [3]. Moreover, in assay [4], the inhibition at 50 µM was determined as 39.6%.
Regarding `O=C1c2ccccc2C(=O)N1CC(O)CNCc1ccccc1C(F)(F)F` (centres unmarked) [Compound 3, 2-(2-Hydroxy-3-((2-(trifluoromethyl)benzyl)amino)propyl)isoindoline-1,3-dione], the inhibition at 10 µM in assay [1] (setting [8]) was under 10%; in assay [2], under 10%; in assay [3], 11.8%. Further, in assay [4], the inhibition at 50 µM stood at 41.8%.
Take `O=C1c2ccccc2C(=O)N1CC(O)CNCc1cccc(Cl)c1` (centres unmarked) [Compound 4, 2-(3-((3-Chlorobenzyl)amino)-2-hydroxypropyl)isoindoline-1,3-dione]: the inhibition at 10 µM in assay [1] (setting [8]) is under 10%; in assay [2], 24.1%; in assay [3] it was under 10%. For the same molecule, the inhibition at 50 µM in assay [4] was 34.1%.
For `COc1ccccc1CNCC(O)CN1C(=O)c2ccccc2C1=O` (centres unmarked) [Compound 5, 2-(2-Hydroxy-3-((2-methoxybenzyl)amino)propyl)isoindoline-1,3-dione], the inhibition at 10 µM is 19.9% in assay [1] (setting [8]) and under 10% in assay [3]. Further, the half-inhibitory concentration (IC50) in assay [2] (BuChE from horse serum, mean ± SEM, at least three experiments) turned out to be 7.86 ± 0.29 µM. The inhibition at 50 µM in assay [4] was found to be 39.2%.
`Cc1ccc(CNCC(O)CN2C(=O)c3ccccc3C2=O)cc1` (centres unmarked) [Compound 6, 2-(2-Hydroxy-3-((4-methylbenzyl)amino)propyl)isoindoline-1,3-dione]: the inhibition at 10 µM is under 10% in assay [1] (setting [8]), 11.6% in assay [2] and under 10% in assay [3]. Further, in assay [4], the inhibition at 50 µM was 45%.
As for `COc1ccc(CNCC(O)CN2C(=O)c3ccccc3C2=O)cc1` (centres unmarked) [Compound 7, 2-(2-Hydroxy-3-((4-methoxybenzyl)amino)propyl)isoindoline-1,3-dione], the inhibition at 10 µM in assay [1] (setting [8]) was under 10%; in assay [2] it was 19.1%; in assay [3], under 10%. In addition, the inhibition at 50 µM in assay [4] was found to be 35.1%.
For `O=C1c2ccccc2C(=O)N1CC(O)CNCc1ccc(Cl)cc1Cl` (centres unmarked) [Compound 8, 2-(3-((2,4-Dichlorobenzyl)amino)-2-hydroxypropyl)isoindoline-1,3-dione], the inhibition at 10 µM in assay [1] (setting [8]) was under 10%; in assay [2], 21.7%; in assay [3] it was under 10%. For the same molecule, the inhibition at 50 µM in assay [4] stood at 37.2%.
As for `O=C1c2ccccc2C(=O)N1CCC(O)CNCc1ccccc1` (centres unmarked) [Compound 9, 2-(4-(Benzylamino)-3-hydroxybutyl)isoindoline-1,3-dione], the inhibition at 10 µM in assay [1] (setting [8]), in assay [2] and in assay [3] was under 10% each time. The inhibition at 50 µM in assay [4] was under 10%.
In the case of `COc1ccccc1CNCC(O)CCN1C(=O)c2ccccc2C1=O` (centres unmarked) [Compound 10, 2-(3-Hydroxy-4-((2-methoxybenzyl)amino)butyl)isoindoline-1,3-dione], the inhibition at 10 µM is under 10% in assay [1] (setting [8]), 17.8% in assay [2] and 32.7% in assay [3]. In addition, the inhibition at 50 µM in assay [4] was 24.4%.
For `COc1ccc(CNCC(O)CCN2C(=O)c3ccccc3C2=O)cc1` (centres unmarked) [Compound 11, 2-(3-Hydroxy-4-((4-methoxybenzyl)amino)butyl)isoindoline-1,3-dione], the inhibition at 10 µM in assay [1] (setting [8]), in assay [2] and in assay [3] was under 10% throughout. In addition, in assay [4], the inhibition at 50 µM turned out to be 34.8%.
As for `O=C1c2ccccc2C(=O)N1CCCC(O)CNCc1ccccc1` (centres unmarked) [Compound 12, 2-(5-(Benzylamino)-4-hydroxypentyl)isoindoline-1,3-dione], the inhibition at 10 µM in assay [1] (setting [8]) stood at 24.9%; in assay [2] it was 14.1%. In assay [3], this molecule showed an IC50 of 3.32 ± 0.15 µM. For the same molecule, the inhibition at 50 µM in assay [4] was 43.7%.
Consider `COc1ccccc1CNCC(O)CCCN1C(=O)c2ccccc2C1=O` (centres unmarked) [Compound 13, 2-(4-Hydroxy-5-((2-methoxybenzyl)amino)pentyl)isoindoline-1,3-dione], for which the inhibition at 10 µM in assay [1] (setting [8]) is under 10%; in assay [2] it was 26.2%. The IC50 in assay [3] came to 11.1 ± 0.49 µM. Further, the inhibition at 50 µM in assay [4] is 37.1%.
Taken in the same sequence, the figures for `O=C1c2ccccc2C(=O)N1CCCCC(O)CNCc1ccccc1` (centres unmarked) [Compound 14, 2-(6-(Benzylamino)-5-hydroxyhexyl)isoindoline-1,3-dione] were under 10%, 36%, 2.13 ± 0.07 µM and 42.1%.
Regarding `COc1ccccc1CNCC(O)CCCCN1C(=O)c2ccccc2C1=O` (centres unmarked) [Compound 15, 2-(5-Hydroxy-6-((2-methoxybenzyl)amino)hexyl)isoindoline-1,3-dione], the inhibition at 10 µM was under 10% in assay [1] (setting [8]) and 36% in assay [2]. For the same molecule, inhibition in assay [3] was half-maximal at 1.95 ± 0.06 µM (IC50). Moreover, in assay [4], the inhibition at 50 µM is 15.7%.
Regarding `O=C1c2ccccc2C(=O)N1CCCCCNCc1ccc(F)cc1` [Compound III, 2-(5-(4-flurobenzylamino)pentyl)isoindoline-1,3-dione], in assay [5], the “neuroprotective effect against Aβ toxicity” value is listed as “neuroprotective effect”. Moreover, in assay [6], the anti-Aβ aggregation activity was 66%. The IC50 in assay [7] is 0.268 µM.
For the molecule `COc1cc2c(cc1OC)C(=O)C(CC1CCN(Cc3ccccc3)CC1)C2` (centres unmarked) [Donepezil, reference compound], in assay [1], the inhibition at 10 µM was 13.8%.
For the molecule `Oc1ccc(/C=C/c2cc(O)cc(O)c2)cc1` [Resveratrol, reference compound], the inhibition at 10 µM in assay [1] (setting [8]) amounted to 78.5%.

The values above are taken from PMC6017481, “Design, Synthesis, and Biological Evaluation of 2-(Benzylamino-2-Hydroxyalkyl)Isoindoline-1,3-Diones Derivatives as Potential Disease-Modifying Multifunctional Anti-Alzheimer Agents” (Molecules : A Journal of Synthetic Chemistry and Natural …, 2018).
